Data reported in US6610720B2, “Method for treating or preventing emesis” (Merck Frosst Canada & Co., priority 2000, dated 2003).
“Also recorded” adds a separate entry of the source. Where two headings read alike, the source gives them in different places. Marks after values point to notes of the source that are not given here.

Key:
ferrets [1] = assay: Administration of alpha-2 adrenoceptor antagonists to ferrets (retching and vomiting); conditions: for Retches / Vomits / Latency responders only: mean±SEM; for Emesis following administration (in words): ferrets
Method: The ferrets were housed in a humidity and temperature controlled environment with food (Marshall Premium ferret diet; Marshall Farms, North Rose, N.Y., U.S.A.) and water provided ad libitum. On the day of the experiment, ferrets were put into individual cages and left to habituate for at least 30 minutes. Fasting was not a pre-requisite of these experiments. Pre-treatment with a test compound or vehicle was performed using a subcutaneous, an intraperitoneal or an oral administration, 60 minutes prior to the emetic challenge. […] Drugs were freshly prepared on the day of the experiment. […] During that time, the number of retches (i.e. rhythmic contraction of the abdomen) and vomiting movements (i.e. oral expulsion or attempt to expel solid/liquid matter from the gastrointestinal tract) were recorded.
Data is expressed as mean±SEM.

ferrets [2] = assay: Behavioural effects observed following the administration of RS14203 in ferrets; assay type: in vivo, ferret (Mustela putorius furo); conditions: RS14203 1 mg/kg p.o.
From the text: (§1) Fasting was not a pre-requisite of these experiments.

humans = conditions: cited from earlier work
ferrets [3] = conditions: for Incidence / Retches / Vomits / Latency responders only: 60 min prior; for Retches / Vomits: 2 h observation
From the text: The anti-emetic activity of alpha-2 adrenoceptor agonists is preferably measured using, for instance, an in vivo emesis assay in the ferret. A variety of emetic stimuli may be employed including, for example, treatment with type IV cyclic nucleotide phosphodiesterase (PDE4) inhibitors (see Robichaud et al, Neuropharmacology (1999) 38, 289-297).
as §1

ferrets [4] = conditions: doses ranging from 62.5-250 μg/kg
Method: Male adult ferrets (Mustela putorius furo; 1-2 kg, Marshall Farms, North Rose, N.Y., U.S.A.) were used and experiments were conducted according to procedures previously described (Robichaud et al, 1999, supra). The ferrets were housed in a humidity and temperature controlled environment with food (Marshall Premium ferret diet; Marshall Farms, North Rose, N.Y., U.S.A.) and water provided ad libitum. On the day of the experiment, ferrets were put into individual cages and left to habituate for at least 30 minutes. Fasting was not a pre-requisite of these experiments. Pre-treatment with a test compound or vehicle was performed using a subcutaneous, an intraperitoneal or an oral administration, 60 minutes prior to the emetic challenge. Emesis was induced by PDE4 inhibitors administered orally (dosing volume=1 ml/kg) at a dose known to cause emesis (Robichaud et al, 1999, supra). Drugs were freshly prepared on the day of the experiment. […] During that time, the number of retches (i.e. rhythmic contraction of the abdomen) and vomiting movements (i.e. oral expulsion or attempt to expel solid/liquid matter from the gastrointestinal tract) were recorded.

elderly patients = elderly patients undergoing intraocular surgery; cited from earlier work
dogs = conditions: i.m.; cited from earlier work
children (3-12 yr) = conditions: cited from earlier work
[5] = emetic agent CT-2450 30 mg/kg p.o., pre-treatment 250 μg/kg s.c.
[6] = emetic agent R-rolipram 3 mg/kg p.o., pre-treatment 250 μg/kg s.c.
[7] = emetic agent R-rolipram 3 mg/kg p.o., pre-treatment 250 μg/kg s.c., mean ± SEM
[8] = emetic agent RS14203 1 mg/kg p.o., pre-treatment 62.5 μg/kg s.c., mean ± SEM
[9] = emetic agent RS14203 1 mg/kg p.o., pre-treatment 125 μg/kg s.c.
[10] = emetic agent RS14203 1 mg/kg p.o., pre-treatment 125 μg/kg s.c., mean ± SEM
[11] = emetic agent RS14203 1 mg/kg p.o., pre-treatment 250 μg/kg s.c.
[12] = emetic agent RS14203 1 mg/kg p.o., pre-treatment 250 μg/kg s.c., mean ± SEM
[13] = pre-treatment 250 μg/kg s.c., listed as Clonidine

## CS(=O)(=O)NCCN1C(=O)NC[C@]12CCN1CCc3c(oc4ccccc34)[C@@H]1C2 [MK-467]
Ferrets [1]; 1 mg/kg p.o.
  Incidence: 0/3
  Retches: 0 n° episodes
  Vomits: 0 n° episodes
Ferrets [1]; 3 mg/kg p.o.
  Incidence: 1/3
  Latency responders only: 12 min
  Retches: 4 ± 4 n° episodes
  Vomits: 0.3 ± 0.3 n° episodes
Ferrets [1]; 10 mg/kg po
  Incidence: 2/3
  Latency responders only: 18.5 ± 2.5 min
  Retches: 12 ± 6 n° episodes
  Vomits: 1.3 ± 0.9 n° episodes
Ferrets [1]
  Emesis following administration (in words): Emesis was also recorded

## CN1CC[C@]2(CCN3CCc4c(oc5ccccc45)[C@@H]3C2)N(C)C1=O.Cl [MK-912]
Ferrets [1]; 1 mg/kg p.o.
  Incidence: 2/8
  Latency responders only: 13.0 ± 5.0 min
  Retches: 3.2 ± 2.3 n° episodes
  Vomits: 0.4 ± 0.3 n° episodes
Ferrets [1]
  Emesis following administration (in words): Emesis was also recorded

## O=[N+]([O-])c1cccc(-c2cc(Cc3ccncc3)cc3cccnc23)c1 [RS14203]
Ferrets [2]
  Behavioural effects produced in addition to emesis: salivation, hyperventilation, gagging and clawing at the mouth

## COC(=O)[C@@H]1[C@H]2C[C@H]3c4[nH]c5ccccc5c4CCN3C[C@@H]2CC[C@@H]1O [Yohimbine, yohimbine]
humans
  Adverse effects following parenteral administration: nausea and vomiting
Ferrets [1]; 3 mg/kg i.p.
  Incidence: 3/3
  Latency responders only: 7 ± 1 min
  Retches: 18.7 ± 3.8 n° episodes
  Vomits: 5.3 ± 1.8 n° episodes
Ferrets [1]; 3 mg/kg p.o.
  Incidence: 3/4
  Latency responders only: 30.3 ± 13.4 min
  Retches: 9.8 ± 6.2 n° episodes
  Vomits: 3.2 ± 1.2 n° episodes
Ferrets [1]; 3 mg/kg s.c.
  Incidence: 2/3
  Latency responders only: 9.5 ± 2.5 min
  Retches: 29.7 ± 17.6 n° episodes
  Vomits: 3.0 ± 1.7 n° episodes
Ferrets [1]
  Emesis following administration (in words): induced retching and vomiting in all ferrets treated; also recorded: caused unexpected retching and vomiting

## Clc1cccc(Cl)c1N=C1NCCN1 [clonidine]
Ferrets [3]; CT-2450 30 mg/kg p.o., pre-treatment 250 μg/kg, all animals treated
  Effect on emesis induced by CT-2450: abolished emesis
Ferrets [3]; R-rolipram 3 mg/kg p.o., pre-treatment 250 μg/kg
  Animals with complete protection against R-rolipram-induced emesis: two out of three
Ferrets [3]; RS14203 1 mg/kg p.o., pre-treatment 250 μg/kg
  Animals showing complete protection against RS14203-induced emesis: five out of six
Ferrets [3]; RS14203 1 mg/kg p.o., pre-treatment 62.5-250 μg/kg
  Effect on number of retches and vomits induced by RS14203: dose-dependently decreased
Ferrets [3]; [5]
  Incidence: 0/5
  Retches: 0* n° episodes
  Vomits: 0* n° episodes
Ferrets [3]; [6]
  Incidence: 1/3
  Latency responders only: 5 min
Ferrets [3]; [7]
  Retches: 54.3 ± 54.3 n° episodes
  Vomits: 5.7 ± 5.7 n° episodes
Ferrets [3]; emetic agent RS14203 1 mg/kg p.o., pre-treatment 62.5 μg/kg s.c.
  Incidence: 2/3
Ferrets [3]; [8]
  Retches: 9.3 ± 7.9 n° episodes
  Vomits: 1.7 ± 1.2 n° episodes
  Latency responders only: 55.0 ± 49.0 min
Ferrets [3]; [9]
  Incidence: 1/3
  Latency responders only: 72 min
Ferrets [3]; [10]
  Retches: 2 ± 2 n° episodes
  Vomits: 1 ± 1 n° episodes
Ferrets [3]; [11]
  Incidence: 1/6
  Latency responders only: 111 min
Ferrets [3]; [12]
  Retches: 0.2 ± 0.2 n° episodes
  Vomits: 0.2 ± 0.2 n° episodes
Ferrets [2]
  Effect on RS14203-induced gagging or clawing at the mouth: no effect
Ferrets [2]; pre-treatment 62.5 μg/kg s.c.
  Clawing at mouth: 2/3
  Gagging: 1/3
  Hyperventilation: 2/3
  Salivation: 2/3
Ferrets [2]; pre-treatment 125 μg/kg s.c.
  Clawing at mouth: 1/3
  Gagging: 1/3
  Hyperventilation: 2/3
  Salivation: 1/3
Ferrets [2]; pre-treatment 250 μg/kg s.c.
  Clawing at mouth: 5/6
  Gagging: 5/6
  Hyperventilation: one out of six
  Salivation: none of the animals
Ferrets [2]; [13]
  Hyperventilation: 1/6
  Salivation: 0/6
Ferrets [4]
  Emesis triggered by the compound by itself: did not trigger emesis
Ferrets [4]; appeared dose-related
  Sedation following the administration: light sedation
Elderly patients
  Effect on emesis: no effect on emesis
  Sedation: induced sedation
dogs
  Emetic ED50: 0.025 mg/kg
Children (3-12 yr)
  Incidence and frequency of vomiting following strabismus surgery: lower the incidence and frequency of vomiting
